pIC50: −log10 of the molar value.
What was measured:
[1] = test system: SH-SY5Y, HeLa; assay: MTT cell proliferation assay and trypan blue count (cell viability); type: cell-based; conditions: cells treated for 48 and 72 hours; read-out: IC50 values (inhibition of cellular proliferation, MTT assay and trypan blue assay)
Method: Cell based assays were used to evaluate the possible cytotoxic effects of some compounds. To measure cytotoxic effects two different methods were used, a MTT cell proliferation assay and trypan blue count.
The Trypan blue assay is used to determine the number of viable cells present in a cell suspension. […] Briefly, 8×10^5 cells (SH-SY5Y, HeLa; obtained from ATCC, LGC standards, Sesto San Giovanni) were seeded in 24-well plates and treated for 48 and 72 hours. After the treatments, cells were stained with trypan blue and counted.
To analyze cell viability was used the colorimetric 3-(4,5-dimethylthiazol-2-yl)-2,5-diphenyltetrazolium bromide (MTT) method. The assay is based on the cleavage of the yellow tetrazolium salt MTT to purple formazan crystals by metabolic active cells. Since reduction of MTT can only occur in metabolically active cells, the level of activity is a measure of the viability of cells and conversely the cytotoxic effects of various treatments. Briefly, 8×10^5 cells (SH-SY5Y, code number CRL-2266; and HeLa, code number CCL-2) were seeded in 24-well plates and treated for 48 and 72 hours. Compounds were dissolved in DMSO and were added to the cells to give a final DMSO concentration no greater than 0.5%. Cells were washed once in Locke buffer and 300 μl of MTT (250 μg/ml in Locke buffer) were added before returning the cells to the incubator for 1 h to allow the formation of the purple formazan crystals. After 1 h, 600 μl of isopropanol/0.1 M HCl were added to each well, and the absorbance was read at 570 nm in a plate reader (Victor3V, PerkinElmer Life Sciences). For some compounds a dose response curve and IC50 for the effects on cell viability and proliferation were calculated. Cell lines used were originally purchased from ATCC (LGC standards. Sesto San Giovanni).
To evaluate the ability of each compound to inhibit cellular proliferation, cells were seeded in 24-well plates and treated for 48 and 72 hours. After the treatments the MTT assay and trypan blue assay were performed.

[2] = biological target: T1, NAMPT (Homo sapiens, UniProt P43490); assay: Direct inhibition of NAMPT enzymatic activity (Cyclex NAMPT colorimetric Assay Kit); type: biochemical; conditions: as assessed with a cycling assay
T1 construct: endogenous in cells; host or cells: SH-SY5Y and HeLa
Method: Determination of the direct activity of compounds on NAMPT was performed using a commercial kit, Cyclex NAMPT colorimetric Assay Kit.

T1 sequence (P43490 whole entry): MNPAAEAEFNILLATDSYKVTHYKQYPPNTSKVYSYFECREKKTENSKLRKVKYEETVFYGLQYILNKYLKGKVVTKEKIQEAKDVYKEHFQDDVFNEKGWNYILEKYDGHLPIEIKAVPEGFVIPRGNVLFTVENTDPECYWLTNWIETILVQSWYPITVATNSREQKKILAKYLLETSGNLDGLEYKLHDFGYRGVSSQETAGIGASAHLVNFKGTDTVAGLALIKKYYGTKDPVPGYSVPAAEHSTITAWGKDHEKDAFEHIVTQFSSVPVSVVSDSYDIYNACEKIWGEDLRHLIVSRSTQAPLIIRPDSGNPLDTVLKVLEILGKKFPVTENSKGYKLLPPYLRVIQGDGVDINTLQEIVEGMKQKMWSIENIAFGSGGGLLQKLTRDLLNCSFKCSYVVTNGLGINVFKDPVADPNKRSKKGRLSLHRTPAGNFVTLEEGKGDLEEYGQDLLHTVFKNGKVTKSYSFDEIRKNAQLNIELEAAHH

Compound | pIC50 [1] | melting point | inhibition of the enzymatic activity of NAMPT [2]
c1ccc(-c2ccccc2-c2cn(CCc3ccc(Cn4cc(-c5cccnc5)nn4)cc3)nn2)cc1 [3-(1-(4-(2-(4-([1,1′-biphenyl]-2-yl)-1H-1,2,3-triazol-1-yl)ethyl)benzyl)-1H-1,2,3-triazol-4-yl)pyridine] | > 6.52 | 139 to 141 °C | –
c1ccc(-c2ccccc2OCc2ccc(CCn3cc(-c4cccnc4)nn3)cc2)cc1 [3-(1-(4-(([1,1′-biphenyl]-2-yloxy)methyl)phenethyl)-1H-1,2,3-triazol-4-yl)pyridine] | > 6.52 | 136 to 137 °C | –
c1ccc(-c2ccccc2-c2cn(CCCCCCn3cc(-c4cccnc4)nn3)nn2)cc1 [3-(1-(6-(4-([1,1′-byphenyl]-2-yl)-1H-1,2,3-triazol-1-yl)hexyl)-1H-1,2,3-triazol-4-yl)pyridine] | > 6.52 | 139 to 140 °C | –
c1ccc(-c2cn(CCCCCCn3cc(-c4cccnc4)nn3)nn2)cc1 [3-(1-(6-(4-phenyl-1H-1,2,3-triazol-1-yl)hexyl)-1H-1,2,3-triazol-4-yl)pyridine] | – | 172 to 173 °C | –
Cc1ccccc1-c1ccccc1OCCCCCCn1cc(-c2cccnc2)nn1 [3-(1-(6-((2′-methyl-[1,1′-biphenyl]-2-yl)oxy)hexyl)-1H-1,2,3-triazol-4-yl)pyridine] | > 6.52 | – | –
c1ccc(OCCCCCCn2cc(-c3cccnc3)nn2)cc1 [3-(1-(6-phenoxyhexyl)-1H-1,2,3-triazol-4-yl)pyridine] | – | 74 to 75 °C | –
c1ccc(-c2cn(CCCCCCCn3cc(-c4cccnc4)nn3)nn2)cc1 [3-(1-(7-(4-phenyl-1H-1,2,3-triazol-1-yl)heptyl)-1H-1,2,3-triazol-4-yl)pyridine] | – | 143 to 144 °C | –
c1ccc(-c2ccccc2OCCCCCCCn2cc(-c3cccnc3)nn2)cc1 [3-(1-(7-([1,1′-biphenyl]-2-yloxy)heptyl)-1H-1,2,3-triazol-4-yl)pyridine] | > 6.52 | – | able to inhibit
c1ccc(OCCCCCCCn2cc(-c3cccnc3)nn2)cc1 [3-(1-(7-phenoxyheptyl)-1H-1,2,3-triazol-4-yl)pyridine] | – | 90.5 to 91 °C | –
c1ccc(-c2ccccc2-c2cn(CCCCCCCCn3cc(-c4cccnc4)nn3)nn2)cc1 [3-(1-(8-(4-([1,1′-byphenyl]-2-yl)-1H-1,2,3-triazol-1-yl)octyl)-1H-1,2,3-triazol-4-yl)pyridine] | > 6.52 | 136 to 140 °C | –
c1ccc(OCCCCCCCCn2cc(-c3cccnc3)nn2)cc1 [3-(1-(8-phenoxyoctyl)-1H-1,2,3-triazol-4-yl)pyridine] | – | 102 to 103 °C | –
O=C(Nc1ccccc1-c1ccccc1)OCCc1ccc(Cn2cc(-c3cccnc3)nn2)cc1 [4-((4-(pyridin-3-yl)-1H-1,2,3-triazol-1-yl)methyl)phenethyl[1,1′-biphenyl]-2-ylcarbamate] | > 6.52 | 131 to 132 °C | –
O=C(Nc1ccccc1-c1ccccc1)OCCCCCCCCn1cc(-c2cccnc2)nn1 [8-(4-(pyridin-3-yl)-1H-1,2,3-triazol-1-yl)octyl[1,1′-biphenyl]-2-ylcarbamate] | > 6.52 | 81 to 85 °C | –
O=C(NCCCc1ccc(-n2cc(-c3cccnc3)nn2)cc1)c1ccccc1-c1ccccc1 [N-(3-(4-(4-(pyridin-3-yl)-1H-1,2,3-triazol-1-yl)phenyl)propyl)-[1,1′-biphenyl]-2-carboxamide] | > 6.52 | 202 to 203 °C | –
O=C(NCc1ccc(CCn2cc(-c3cccnc3)nn2)cc1)c1ccccc1-c1ccccc1 [N-(4-(2-(4-(pyridin-3-yl)-1H-1,2,3-triazol-1-yl)ethyl)benzyl)-[1,1′-biphenyl]-2-carboxamide] | > 6.52 | 204 to 205 °C | –
O=S(=O)(NCCc1ccc(Cn2cc(-c3cccnc3)nn2)cc1)c1ccccc1-c1ccccc1 [N-(4-((4-(pyridin-3-yl)-1H-1,2,3-triazol-1-yl)methyl)phenethyl)-[1,1′-biphenyl]-sulfonamide] | > 6.52 | – | –
O=S(=O)(NCCCCCCn1cc(-c2cccnc2)nn1)c1ccccc1-c1ccccc1 [N-(6-(4-(pyridin-3-yl)-1H-1,2,3-triazol-1-yl)hexyl) biphenyl-2-sulfonamide] | > 6.52 | – | –
O=S(=O)(NCCCCCCCn1cc(-c2cccnc2)nn1)c1ccccc1-c1ccccc1 [N-(7-(4-(pyridin-3-yl)-1H-1,2,3-triazol-1-yl)heptyl) biphenyl-2-sulfonamide] | > 6.52 | – | –
O=C(NCCCCCCCn1cc(-c2cccnc2)nn1)c1ccccc1 [N-(7-(4-(pyridin-3-yl)-1H-1,2,3-triazol-1-yl)heptyl)benzamide] | – | 123 to 124 °C | –
c1ccc(-c2ccccc2CNCCCCCCn2cc(-c3cccnc3)nn2)cc1 [N-([1,1′-biphenyl]-2-ylmethyl)-6-(4-(pyridin-3-yl)-1H-1,2,3-triazol-1-yl)hexan-1-amine] | > 6.52 | 55 to 58 °C | –
c1ccc(-c2ccccc2CNCCCCCCCn2cc(-c3cccnc3)nn2)cc1 [N-([1,1′-biphenyl]-2-ylmethyl)-7-(4-(pyridin-3-yl)-1H-1,2,3-triazol-1-yl)heptan-1-amine] | > 6.52 | 86 to 91 °C | –
c1ccc(-c2ccccc2CNCCCCCCCCn2cc(-c3cccnc3)nn2)cc1 [N-([1,1′-biphenyl]-2-ylmethyl)-8-(4-(pyridin-3-yl)-1H-1,2,3-triazol-1-yl)octan-1-amine] | > 6.52 | – | –
c1ccc(-c2ccccc2CNCCc2ccc(Cn3cc(-c4cccnc4)nn3)cc2)cc1 [N-([1,1′-biphenyl]-ylmethyl)-2-(4-((4-(pyridin-3-yl)-1H-1,2,3-triazol-1-yl)methy)phenyl)ethanamine] | > 6.52 | – | –
NC(=O)c1ccccc1-c1ccccc1C(=O)NCCCCCCCn1cc(-c2cccnc2)nn1 [N^2-(7-(4-(pyridin-3-yl)-1H-1,2,3-triazol-1-yl)heptyl)-[1,1′-biphenyl]-2,2′-dicarboxamide] | – | 100 to 101 °C | –

Further lines, results first:

pIC50 [1] | melting point | inhibition of the enzymatic activity of NAMPT [2] | Compound
> 6.52 | 90 to 95 °C | – | O=C(NCCCCCCCCn1cc(-c2cccnc2)nn1)Nc1ccccc1-c1ccccc1 [1-([1,1′-biphenyl]-2-il)-3-(8-(4-(pyridin-3-yl)-1H-1,2,3-triazol-1-yl)octyl)urea]
> 6.52 | – | able to inhibit | O=C(NCCCCCCn1cc(-c2cccnc2)nn1)Nc1ccccc1-c1ccccc1 [1-([1,1′-biphenyl]-2-yl)-3-(6-(4-(pyridin-3-yl)-1H-1,2,3-triazol-1-yl)hexyl)urea]
> 6.52 | – | – | O=S(=O)(NCCc1ccc(Cn2cc(-c3cccnc3)nn2)cc1)c1ccccc1Br [2-bromo-N-(4-((4-(pyridin-3-yl)-1H-1,2,3-triazol-1-yl)methyl)phenethyl)benzenesulfonamide]
> 6.52 | – | – | O=S(=O)(NCCCCCCn1cc(-c2cccnc2)nn1)c1ccccc1Br [2-bromo-N-(6-(4-(pyridin-3-yl)-1H-1,2,3-triazol-1-yl)hexyl)benzene sulfonamide]
> 6.52 | – | – | O=S(=O)(NCCCCCCCn1cc(-c2cccnc2)nn1)c1ccccc1Br [2-bromo-N-(7-(4-(pyridin-3-yl)-1H-1,2,3-triazol-1-yl)heptyl)benzene sulfonamide]
> 6.52 | – | – | O=S(=O)(NCCCCCCCCn1cc(-c2cccnc2)nn1)c1ccccc1Br [2-bromo-N-(8-(4-(pyridin-3-yl)-1H-1,2,3-triazol-1-yl)octyl)benzene sulfonamide]
> 6.52 | 106 to 108 °C | – | O=C(NCCCCCCCn1cc(-c2cccnc2)nn1)c1ccccc1I [2-iodo-N-(7-(4-(pyridin-3-yl)-1H-1,2,3-triazol-1-yl)heptyl)benzamide]
> 6.52 | – | – | O=C(O)c1cccc(-c2ccccc2OCCCCCCn2cc(-c3cccnc3)nn2)c1 [2′-((6-(4-(pyridin-3-yl)-1H-1,2,3-triazol-1-yl)hexyl)oxy)-[1,1′-biphenyl]-3-carboxylic acid]
> 6.52 | – | – | O=C(O)c1ccc(-c2ccccc2OCCCCCCn2cc(-c3cccnc3)nn2)cc1 [2′-((6-(4-(pyridin-3-yl)-1H-1,2,3-triazol-1-yl)hexyl)oxy)-[1,1′-biphenyl]-4-carboxylic acid]
> 6.52 | – | – | O=C(O)c1ccc(-c2ccccc2C(=O)NCCCCCCCn2cc(-c3cccnc3)nn2)cc1 [2′-((7-(4-(pyridin-3-yl)-1H-1,2,3-triazol-1-yl)heptyl)carbamoyl)-[1,1′-biphenyl]-4-carboxylic acid]
> 6.52 | – | able to inhibit | Cc1ccccc1-c1ccccc1C(=O)NCCCCCCCn1cc(-c2cccnc2)nn1 [2′-methyl-N-(7-(4-(pyridin-3-yl)-1H-1,2,3-triazol-1-yl)heptyl)-[1,1′-biphenyl]-2-carboxamide]

From patent publication US20160075682A1, “INHIBITORS OF NICOTINAMIDE PHOSPHORIBOSYLTRANSFERASE, COMPOSITIONS, PRODUCTS AND USES THEREOF” (UNIVERSITÀ DEGLI STUDI DEL PIEMONTE ORIENTALE "AMEDEO …, priority 2013, published 2016)
